Measurements taken from patent US11426454B2 (priority 2018, dated 2022).

Tested on: live BCG bacteria
Format: in vivo, C57BL/6 mice
Conditions: 0.1 mL (approximately 10^6 CFU/mL) under the armpits; isoniazid by gavage; 2×10^6 live BCG challenge one week later; week 4

Structure (SMILES): NNC(=O)c1ccncc1 [Isoniazid, isoniazid]
- Colony count of lung tissues (CFU): 34000 ± 13115 CFU
- Colony count of spleen tissues (CFU): 6733 ± 2969 CFU
